Our source for the TGI values is PubChem BioAssay (NCI).

Values joined by “and” are separate entries in the source; they are usually repeats but may differ in a detail not shown here. Equal values may be shown once.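 Results reflect a 48-hour exposure of cells in 96-well plates to compound at five concentrations. TGI is the concentration that stops growth completely.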 Where a SMILES comes first, the peptide text is derived from it. [ ]: non-standard residue; d: D form. The star is where a group is joined. Phe(4-NO2) = N[CH](Cc1ccc([N+](=O)[O-])cc1)C(=O)O; Boc = CC(C)(C)OC(=O)*

Test systems include CAKI-1 renal; HOP-92 NSCLC; HS 578T breast; MALME-3M melanoma; MCF7 breast; NCI-H522 lung; SR leukemia; UO-31 renal; OVCAR-4 ovarian; HL-60(TB) leukemia.
Common to all, as to assay: growth of human tumour cells (NCI), 48 h

Turning to `S=C1C(=Nc2ccccc2)N(c2ccccc2)/C(=N\c2cccc[n+]2Cc2ccccc2)N1c1ccccc1`, the TGI in the experiment with CAKI-1 renal is 55.7 µM; in the experiment on HOP-92 NSCLC it was 41.9 µM; with HS 578T breast, > 100 µM; in the experiment with MALME-3M melanoma, 28.2 µM; with MCF7 breast, 42.8 µM; with NCI-H522 lung it was 31.2 µM. Also, the TGI is 79.7 µM with SR leukemia and 42.8 µM in the experiment with UO-31 renal.

Regarding `Cc1cc(N2CCCCC2)nc2ccc(Cc3ccc4nc(N5CCCCC5)cc(C)c4c3)cc12`, the TGI in the experiment with CAKI-1 renal, in the experiment with HOP-92 NSCLC, with HS 578T breast, in the experiment with MALME-3M melanoma, in the experiment with MCF7 breast and with NCI-H522 lung was > 100 µM each time. The TGI in the experiment with OVCAR-4 ovarian, in the experiment with SR leukemia and in the experiment on UO-31 renal was > 100 µM throughout.

Consider `O=C1C=CC(=O)c2c(O)c(N3CCOCC3)c(Cl)c(O)c21`, for which the TGI is 1.27 µM with CAKI-1 renal; 0.675 µM in the experiment on HOP-92 NSCLC; 1.7 µM with HS 578T breast; 0.442 µM with MALME-3M melanoma; 0.486 µM in the experiment on MCF7 breast; 0.83 µM in the experiment on NCI-H522 lung. The TGI with OVCAR-4 ovarian was 0.663 µM; in the experiment with SR leukemia it was > 7.34 µM; with UO-31 renal it was 0.892 µM.

Take `O=CC(O)C(O)C(O)C(O)COC(=O)NCCCCC(=O)C(F)(F)C(F)(F)C(F)(F)C(F)(F)C(F)(F)C(F)(F)C(F)(F)F` (configuration not stated): the TGI with CAKI-1 renal is > 100 µM; with HL-60(TB) leukemia it was > 100 µM; in the experiment on HOP-92 NSCLC, 31.8 µM; in the experiment with HS 578T breast, 64.6 µM; with MALME-3M melanoma, > 100 µM; with MCF7 breast, 34 µM. The TGI in the experiment on OVCAR-4 ovarian, in the experiment with SR leukemia and with UO-31 renal was > 100 µM each time.

Turning to `CC/C=C/c1cc2c(cc1O)CCC1C2CC[C@@]2(C)C1CC[C@@H]2O` (some centres not stated), the TGI is 13.7 µM in the experiment with CAKI-1 renal; 26 µM with HOP-92 NSCLC; 6.11 µM with HS 578T breast; 15.8 µM with MALME-3M melanoma; 10.1 µM with MCF7 breast; 14.1 µM in the experiment with NCI-H522 lung. Further, the figures for the TGI with OVCAR-4 ovarian, in the experiment on SR leukemia and with UO-31 renal were 35.3 µM, 0.817 µM and 18.3 µM, respectively.

Regarding `Cn1c2ccc(Cl)cc2c2ccc3c(c21)C(=O)C=CC3=O`, the TGI with CAKI-1 renal, with HL-60(TB) leukemia, in the experiment on HOP-92 NSCLC, in the experiment with HS 578T breast, with MALME-3M melanoma and in the experiment on MCF7 breast was > 10 µM in each case. Further, the TGI with NCI-H522 lung, in the experiment on OVCAR-4 ovarian and with SR leukemia was > 10 µM in each case.

As for `CC(=O)OCC1OC(SC2=NC(=O)CS2)C(OC(C)=O)C(OC(C)=O)C1OC(C)=O` (configuration not stated), the TGI in the experiment with CAKI-1 renal was > 100 µM; in the experiment with HL-60(TB) leukemia, 91.2 µM and 70.7 µM; in the experiment on HS 578T breast, > 100 µM; in the experiment on MALME-3M melanoma, > 100 µM; with MCF7 breast it was > 100 µM; with NCI-H522 lung it was > 100 µM. For the same compound, the TGI with SR leukemia and in the experiment with UO-31 renal was > 100 µM in each case.

Consider `CC(=O)CC(=O)N1CCSC1=S`, for which the TGI in the experiment on HL-60(TB) leukemia, in the experiment on HOP-92 NSCLC, with HS 578T breast, with MALME-3M melanoma, with MCF7 breast and in the experiment on SR leukemia was > 10 µM each time. Moreover, in the experiment with UO-31 renal, the TGI is > 10 µM.

With `O=C1C=CC2(O[C@H](C3CCCCC3)[C@@H](C3CCCCC3)O2)C(SC(=O)c2ccccc2)C1` (some centres not stated), the TGI in the experiment on HL-60(TB) leukemia worked out at 7.37 µM; in the experiment with HOP-92 NSCLC it was 16.8 µM; in the experiment on HS 578T breast it was 10.9 µM; in the experiment on MALME-3M melanoma, 10.5 µM; in the experiment with MCF7 breast it was 5.08 µM; in the experiment on NCI-H522 lung, 2.23 µM. Moreover, the TGI stood at 4.01 µM in the experiment on OVCAR-4 ovarian, 2.36 µM in the experiment with SR leukemia and 4.31 µM in the experiment with UO-31 renal.

As for `CCOC(=O)CCC(NC(=O)C(Cc1ccc([N+](=O)[O-])cc1)NC(=O)OC(C)(C)C)C(=O)NC(CCC(=O)OCC)C(=O)OCC` (configuration not stated) (Boc-[Phe(4-NO2)]-Glu(OEt)-Glu(OEt)-OEt; configuration not given here), the TGI in the experiment with HL-60(TB) leukemia is 44 µM; in the experiment with HOP-92 NSCLC, 34.7 µM; with HS 578T breast it was 53.1 µM; with MALME-3M melanoma, 35 µM; in the experiment with MCF7 breast, > 100 µM; with SR leukemia it was 9.38 µM. Further, in the experiment with UO-31 renal, the TGI is > 100 µM.

Take `Cc1cc2nc3ccccc3n2c2ccccc12`: the TGI in the experiment with CAKI-1 renal, in the experiment on HL-60(TB) leukemia, with HS 578T breast, in the experiment with MALME-3M melanoma, with MCF7 breast and with NCI-H522 lung was > 10 µM throughout. For the same compound, the TGI with OVCAR-4 ovarian and in the experiment on SR leukemia was > 10 µM throughout.

As for `CC(c1ccccc1)n1cncc1C(=O)NN1CCN(C)CC1` (configuration not stated), the TGI with CAKI-1 renal, in the experiment on HL-60(TB) leukemia, in the experiment on HS 578T breast, with MALME-3M melanoma, with MCF7 breast and with NCI-H522 lung was > 10 µM throughout. Besides, the TGI in the experiment with OVCAR-4 ovarian and with SR leukemia was > 10 µM each time.

Take `COC(=O)c1onc(C2OC(C)(C)OC2C(O)COC(c2ccccc2)(c2ccccc2)c2ccccc2)c1C(=O)OC` (configuration not stated): the TGI with HL-60(TB) leukemia, in the experiment with HOP-92 NSCLC, in the experiment on HS 578T breast, in the experiment on MALME-3M melanoma, in the experiment with MCF7 breast and with NCI-H522 lung was > 100 µM each time. For the same compound, the TGI in the experiment on OVCAR-4 ovarian, with SR leukemia and with UO-31 renal was > 100 µM each time.

With `O=C1CC(c2ccsc2)n2cccc21` (configuration not stated), the TGI in the experiment on CAKI-1 renal, with HL-60(TB) leukemia, in the experiment with HOP-92 NSCLC, with HS 578T breast, in the experiment on MCF7 breast and in the experiment on NCI-H522 lung was > 100 µM each time. The TGI in the experiment on OVCAR-4 ovarian, in the experiment with SR leukemia and with UO-31 renal was > 100 µM in each case.

Regarding `CCOC(=O)c1c(N2CCCC2)[nH]c(=O)c(C(c2ccc(N(C)C)cc2)c2c(O)c(C(=O)OCC)c(N3CCCC3)[nH]c2=O)c1O`, the TGI in the experiment with CAKI-1 renal, in the experiment on HOP-92 NSCLC, with HS 578T breast, in the experiment on MALME-3M melanoma, in the experiment with MCF7 breast and with NCI-H522 lung was > 100 µM each time. The TGI in the experiment with OVCAR-4 ovarian, in the experiment with SR leukemia and with UO-31 renal was > 100 µM throughout.
